Data from patent publication EP0256258A2, “Salts of methoxyphenyl-dimethylaminomethyl-cyclohexanol, medicaments containing these and process for their preparation” (Grünenthal GmbH, priority 1986, dated 1988).
Values after ≈ are worked out from the molar mass of the structure shown. Structures can show the parent of a compound that is named as a salt.

Assays:
physchem = conditions: water
[1] = Dissolution rate of finely powdered substance under USP XXI conditions (apparatus 2) in artificial intestinal juice; conditions: pH 7

With `COc1cccc([C@@]2(O)CCCC[C@@H]2CN(C)C)c1` (racemic) [I-Hydrochlorid, 1e-(m-Methoxyphenyl)-2e-dimethylaminomethyl-cyclohexan-1-(a)-ol] the solubility (physchem) was 298 mg/mL and the “gelöst / in Lösung gegangen nach 2 Minuten” value [1] was greater than 97%.

In the case of `O=C(O)Cc1ccccc1Nc1c(Cl)cccc1Cl` [II-Natriumsalz, 2-(2ʹ,6ʹ-Dichloranilino)-phenylessigsäure], the solubility (Solubility in water) is reported as roughly 30 mg/mL (≈ 101 mM).
